Test results published in patent EP3323812B1, “ARYLALKYL-AND ARYLOXYALKYL-SUBSTITUTED EPITHELIAL SODIUM CHANNEL BLOCKING COMPOUNDS” (Parion Sciences, Inc., priority 2012, dated 2014).

Tests used:
CBE cells = test: Airway hydration: apical surface liquid retention on primary CBE cells at air-liquid interface; type: cell-based, canine; settings: 10 µM, after 8 hours, 50 µl applied to apical surface of CBE cells
Method: Primary CBE cells are plated onto collagen-coated, porous membranes maintained at an air-liquid interface to assess maintenance of surface liquid volume over time. […] To reduce artifact due to an apical carbohydrate osmotic gradient upon water loss, glucose was not included in the apical buffer.

Muc5B = Muc5B (Homo sapiens, UniProt Q9HC84); settings: in vitro; also printed as 3.26%; cited from earlier work

Compound | surface liquid retained (% initial volume) (CBE cells) [%] | concentration required to fully reduce Muc5B (Muc5B) [mM]
N=C(N)NC(=O)c1nc(Cl)c(N)nc1N [Amiloride, amiloride] | 25±19.2 | –
CC(=O)N[C@@H](CS)C(=O)O [NAC, N-acetyl cysteine] | – | 200
